Like-named read-outs stand apart in the source and are kept apart here.

As a reminder, the EC50 is the concentration at which the effect is half-maximal.

The target in one experiment is T1, S1PR1 (Homo sapiens, UniProt P21453).
T1 construct: host or cells: CHO-K1 co-expressing Ga15
In words: Agonistic activity test on S1P receptors, FLIPR, CHO-K1/Ga15/EDG1 cells. It is filed as cell-based. The following applies: CHO-K1/Ga15/EDG1 cells, FLIPR agonist mode, read-out: S1PR1 EC50. How it is done: (§1) Instrument: FLIPR™ TETRA (Molecular Device)
Experimental materials: CHO-K1/Ga15/EDG1 cells constructed by GenScript autonomously.
(§2) Sample processing: Before the experiment, the working solution with the corresponding concentration was prepared by diluting with GPCR dilution buffer.
(§3) After 18-20 hours, the cell culture plat was taken out and added with dye working solution, and then the plate was placed in a 37° C./5% CO2 incubator for 1 hour, and finally equilibrated at room temperature for 15 minutes. Positive agonist working solution was added, and RFU values were detected and recorded. […] The positive agonist working fluid was added to the cell culture plate at the 21st second. […] The antagonistic mode detection program, the overall detection time of the instrument was 120 seconds, and positive antagonist working solution was added to the cell culture plate at the 21st second.
(§4) Data processing: Raw data were obtained via ScreenWorks (version 3.1) and saved as *FMD files on the Kingsray computer network system. Data were collected and analyzed using Excel and GraphPad Prism 6 software programs. For each well, the average fluorescence intensity value from 1 to 20 seconds was used as the baseline, and the maximum fluorescence intensity value from 21 to 120 seconds minus the minimum fluorescence intensity value from 21 to 120 seconds was the relative fluorescence intensity value (ARFU), from which the percentage activation or inhibition can be calculated based on the following equation.
(§5) % Activation Rate=(ΔRFUCompound-ΔRFUBackground)/(ΔRFUAgonist control-ΔRFUBackground)×100%
(§6) The data was analyzed using GraphPad Prism 6 with a four-parameter equation to calculate the EC50 and IC50 values. The four-parameter equation was as follows: y=Bottom+(Top-Bottom)/(1+10^((LogEC50/IC50-X)*HillSlope)), wherein X is the Log value of the concentration and Y was the inhibition rate.

The target in another experiment is S1PR3 (Homo sapiens, UniProt Q99500). In words: Agonistic activity test on S1P receptors, FLIPR. It is filed as cell-based. The following applies: FLIPR agonist mode; read-out: S1PR3 EC50. As for the experimental part:
as §1, §2, §3, §4, §5, §6

T1 sequence (P21453 whole entry): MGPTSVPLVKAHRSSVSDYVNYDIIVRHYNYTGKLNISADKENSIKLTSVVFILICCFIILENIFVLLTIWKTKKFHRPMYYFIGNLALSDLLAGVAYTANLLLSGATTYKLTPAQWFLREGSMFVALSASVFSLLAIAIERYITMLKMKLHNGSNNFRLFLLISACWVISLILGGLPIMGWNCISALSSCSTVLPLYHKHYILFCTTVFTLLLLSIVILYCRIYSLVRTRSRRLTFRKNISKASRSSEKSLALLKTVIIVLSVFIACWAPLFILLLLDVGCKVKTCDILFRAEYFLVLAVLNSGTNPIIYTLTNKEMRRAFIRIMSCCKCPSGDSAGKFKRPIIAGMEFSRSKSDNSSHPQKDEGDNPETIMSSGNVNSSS
S1PR3, sequence (Q99500 whole entry, species assumed): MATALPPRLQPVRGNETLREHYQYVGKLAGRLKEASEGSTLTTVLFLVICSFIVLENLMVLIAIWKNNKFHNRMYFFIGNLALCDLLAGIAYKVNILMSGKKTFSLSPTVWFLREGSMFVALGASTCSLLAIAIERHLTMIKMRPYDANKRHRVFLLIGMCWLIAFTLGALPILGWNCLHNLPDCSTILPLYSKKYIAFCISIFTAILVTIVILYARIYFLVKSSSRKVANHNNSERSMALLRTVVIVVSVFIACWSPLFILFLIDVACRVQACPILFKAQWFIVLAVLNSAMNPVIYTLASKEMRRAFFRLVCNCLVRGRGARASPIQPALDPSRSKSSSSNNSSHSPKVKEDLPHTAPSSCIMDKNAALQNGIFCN

Regarding `O=C(O)C1CN(Cc2ccc(-c3noc(/C=C/c4ccccc4)n3)c3ccccc23)C1` [Compound A38, (E)-1-((4-(5-styryl-1,2,4-oxadiazol-3-yl)naphthalen-1-yl)methyl) azetidine-3-carboxylic acid hydrochloric acid], the EC50 on S1PR1 is 1.42 µM; at S1PR3 it was over 10000 nM.
Turning to `O=C(O)C1CN(Cc2ccc(-c3noc(-c4ccc5c(c4)OCO5)n3)c3ccccc23)C1` [Compound A31], the results for the half-maximal effective concentration (EC50) at S1PR1 and at S1PR3 were 1.3 µM and over 10000 nM, respectively.
Consider `O=C(O)C1CN(Cc2ccc(-c3noc(-c4cccc(F)c4)n3)c3ccccc23)C1` [Compound A25, 1-((4-(5-(3-fluorophenyl)-1,2,4-oxadiazol-3-yl)naphthalen-1-yl)methyl) azetidine-3-carboxylic acid hydrochloric acid], for which the EC50 at S1PR1 is 1.06 µM; on S1PR3, over 10000 nM.
Taken in the same sequence, the figures for `O=C(O)C1CN(Cc2ccc(-c3noc(-c4ccccc4)n3)c3ccccc23)C1` [Compound A26, 1-((4-(5-phenyl-1,2,4-oxadiazol-3-yl)naphthalen-1-yl)methyl) azetidine-3-carboxylic acid hydrochloric acid] were 0.749 µM and over 10000 nM.
For `O=C(O)C1CN(Cc2ccc(-c3noc(-c4cnc5ccccc5c4)n3)c3ccccc23)C1` [Compound A33, 1-((4-(5-(quinolin-3-yl)-1,2,4-oxadiazol-3-yl)naphthalen-1-yl)methyl) azetidine-3-carboxylic acid hydrochloric acid], the EC50 at S1PR1 is 0.933 µM; on S1PR3, over 10000 nM.
As to `COc1ccc(-c2nc(-c3ccc(CN4CC(C(=O)O)C4)c4ccccc34)no2)cc1` [Compound A16, 1-((4-(5-(4-methoxyphenyl)-1,2,4-oxadiazol-3-yl)naphthalen-1-yl)methyl) azetidine-3-carboxylic acid hydrochloric acid], the EC50 at S1PR1 is 1.17 µM; at S1PR3 it was over 10000 nM.
Taken in the same sequence, the figures for `CC(C)Oc1ccc(-c2nc(-c3ccc(CN4CC(C(=O)O)C4)c4ccccc34)no2)cc1C(F)(F)F` [Compound A12, 1-((4-(5-(4-isopropoxy-3-(trifluoromethyl)phenyl)-1,2,4-oxadiazol-3-yl)naphthalen-1-yl)methyl) azetidine-3-carboxylic acid hydrochloric acid] were 0.358 µM and over 10000 nM.
For the compound `O=C(O)C1CN(Cc2ccc(-c3noc(-c4cnc5ccccc5n4)n3)c3ccccc23)C1` [Compound A34, 1-((4-(5-(quinoxaline-2-yl)-1,2,4-oxadiazol-3-yl)naphthalen-1-yl)methyl) azetidine-3-carboxylic acid hydrochloric acid], the EC50 on S1PR1 was 0.739 µM; on S1PR3 it was over 10000 nM.
As for `COc1cc(-c2nc(-c3ccc(CN4CC(C(=O)O)C4)c4ccccc34)no2)ccc1OC(C)C` [Compound A13, 1-((4-(5-(4-isopropoxy-3-methoxyphenyl)-1,2,4-oxadiazol-3-yl)naphthalen-1-yl)methyl) azetidine-3-carboxylic acid hydrochloric acid], the results for the EC50 at S1PR1 and on S1PR3 were 1.55 µM and over 10000 nM, respectively.
For the compound `CC(C)Oc1ccc(-c2nc(-c3ccc(CN4CC(C(=O)O)C4)c4ccccc34)no2)cc1Cl` [Compound A10, 1-((4-(5-(3-chloro-4-isopropoxyphenyl)-1,2,4-oxadiazol-3-yl)naphthalen-1-yl)methyl) azetidine-3-carboxylic acid hydrochloric acid], the EC50 was 0.699 µM at S1PR1 and over 10000 nM at S1PR3.
On to `O=C(O)C1CN(Cc2ccc(-c3noc(-c4ccc(OC(F)(F)F)cc4)n3)c3ccccc23)C1` [Compound A19, 1-((4-(5-(4-(trifluoromethoxy)phenyl)-1,2,4-oxadiazol-3-yl)naphthalen-1-yl)methyl) azetidine-3-carboxylic acid hydrochloric acid], for which the EC50 is 1.13 µM at S1PR1 and over 10000 nM on S1PR3.
Regarding `N#Cc1cccc(-c2nc(-c3ccc(CN4CC(C(=O)O)C4)c4ccccc34)no2)c1` [Compound A24, 1-((4-(5-(3-cyanophenyl)-1,2,4-oxadiazol-3-yl)naphthalen-1-yl)methyl) azetidine-3-carboxylic acid hydrochloric acid], the EC50 is 0.685 µM at S1PR1 and over 10000 nM at S1PR3.
Regarding `O=C(O)C1CN(Cc2ccc(-c3noc(-c4ccc5c(c4)OCCO5)n3)c3ccccc23)C1` [Compound A32, 1-((4-(5-(2,3-dihydrobenzo[b][1,4]dioxin-6-yl)-1,2,4-oxadiazol-3-yl)naphthalen-1-yl)methyl) azetidine-3-carboxylic acid hydrochloric acid], the EC50 on S1PR1 was 0.617 µM; at S1PR3, over 10000 nM.
Consider `CCCOc1ccc(-c2nc(-c3ccc(CN4CC(C(=O)O)C4)c4ccccc34)no2)cc1` [Compound A17, 1-((4-(5-(4-propoxyphenyl)-1,2,4-oxadiazol-3-yl)naphthalen-1-yl)methyl) azetidine-3-carboxylic acid hydrochloric acid], for which the EC50 is over 10 µM at S1PR1 (cells printed in μM) and over 10000 nM on S1PR3.
Take `CC(C)c1ccc(-c2nc(-c3ccc(CN4CC(C(=O)O)C4)c4ccccc34)no2)cc1` [Compound A20, 1-((4-(5-(4-isopropylphenyl)-1,2,4-oxadiazol-3-yl)naphthalen-1-yl)methyl) azetidine-3-carboxylic acid hydrochloric acid]: the EC50 at S1PR1 is 1.05 µM; on S1PR3, over 10000 nM.
For the compound `O=C(O)C1CN(Cc2ccc(-c3noc(-c4ccc(OCc5ccccc5)cc4)n3)c3ccccc23)C1` [Compound A18, 1-((4-(5-(4-(benzyloxy)phenyl)-1,2,4-oxadiazol-3-yl)naphthalen-1-yl)methyl) azetidine-3-carboxylic acid hydrochloric acid], the EC50 was over 10 µM on S1PR1 (cells printed in μM) and over 10000 nM on S1PR3.
`O=C(O)C1CN(Cc2ccc(-c3noc(-c4cccnc4)n3)c3ccccc23)C1` [Compound A28, 1-((4-(5-(pyridin-3-yl)-1,2,4-oxadiazol-3-yl)naphthalen-1-yl)methyl) azetidine-3-carboxylic acid hydrochloric acid]: the results for the EC50 on S1PR1 and on S1PR3 were 1.18 µM and over 10000 nM, respectively.
In the case of `O=C(O)C1CN(Cc2ccc(-c3noc(-c4cc5ccccc5[nH]4)n3)c3ccccc23)C1` [Compound A36, 1-((4-(5-(1H-indole-2-yl)-1,2,4-oxadiazol-3-yl)naphthalen-1-yl)methyl) azetidine-3-carboxylic acid hydrochloric acid], the values for the EC50 at S1PR1 and on S1PR3 were 1.11 µM and over 10000 nM, respectively.
Turning to `O=C(O)C1CN(Cc2ccc(-c3noc(-c4ccncc4)n3)c3ccccc23)C1` [Compound A27, 1-((4-(5-(pyridin-4-yl)-1,2,4-oxadiazol-3-yl)naphthalen-1-yl)methyl) azetidine-3-carboxylic acid hydrochloric acid], the EC50 at S1PR1 (cells printed in μM) was over 10 µM; on S1PR3 it was over 10000 nM.
`O=C(O)C1CN(Cc2ccc(-c3noc(C4CCCCC4)n3)c3ccccc23)C1` [Compound A39, 1-((4-(5-cyclohexyl-1,2,4-oxadiazol-3-yl)naphthalen-1-yl)methyl) azetidine-3-carboxylic acid hydrochloric acid]: the EC50 is 0.831 µM on S1PR1 and over 10000 nM on S1PR3.

The values above are taken from patent US20240208954A1, “OXADIAZOLE COMPOUND, PREPARATION METHOD THEREFOR, PHARMACEUTICAL COMPOSITION AND USE THEREOF” (SHANGHAI INSTITUTE OF MATERIA MEDICA, CHINESE ACADEMY OF …, priority 2020, published 2024).
